Data published in the supplement of paper PMC10307832.

Legend:
Assay in all cases: relative viability (nuclei count vs DMSO), 5 days (fraction); higher = more cells survive
Zebularine + Dasatinib = compound: O=c1ncccn1[C@@H]1O[C@H](CO)[C@@H](O)[C@H]1O [Zebularine] + Cc1nc(Nc2ncc(C(=O)Nc3c(C)cccc3Cl)s2)cc(N2CCN(CCO)CC2)n1 [Dasatinib] (partner 0.075 µM)
Method in brief: (§1)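 Relative viability equals treated-well nuclei counts divided by vehicle-well nuclei counts. Counts came from 4× images of lung cancer cell lines grown in 1536-well plates for 5 days after pin-tool dosing on the day after seeding. Dosing used one drug alone or a fixed anchor-drug dose plus five library-drug doses (not always all listed) in √10 steps, and values are medians of duplicate plates.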

BI-D1870 + Foretinib = compound: CC(C)CCN1c2nc(Nc3cc(F)c(O)c(F)c3)ncc2N(C)C(=O)C1C [BI-D1870] + COc1cc2c(Oc3ccc(NC(=O)C4(C(=O)Nc5ccc(F)cc5)CC4)cc3F)ccnc2cc1OCCCN1CCOCC1 [Foretinib] (partner 0.25 µM)
Method in brief: as §1

Zebularine + Olaparib = compound: O=c1ncccn1[C@@H]1O[C@H](CO)[C@@H](O)[C@H]1O [Zebularine] + O=C(c1cc(Cc2n[nH]c(=O)c3ccccc23)ccc1F)N1CCN(C(=O)C2CC2)CC1 [Olaparib] (partner 8 µM)
Method in brief: as §1

BI-D1870 + Lapatinib = compound: CC(C)CCN1c2nc(Nc3cc(F)c(O)c(F)c3)ncc2N(C)C(=O)C1C [BI-D1870] + CS(=O)(=O)CCNCc1ccc(-c2ccc3ncnc(Nc4ccc(OCc5cccc(F)c5)c(Cl)c4)c3c2)o1 [Lapatinib] (partner 2 µM)
Method in brief: as §1

Cell Line UMC-11 has a relative viability (Zebularine + Dasatinib; first compound 1 µM) of 0.514, a relative viability (Zebularine + Dasatinib; first compound 3.162 µM) of 0.471 and a relative viability (Zebularine + Dasatinib; first compound 10 µM) of 0.205. For the same cell line, the relative viability (Zebularine + Dasatinib; first compound 31.62 µM) was 0.436, the relative viability (Zebularine + Dasatinib; first compound 100 µM) was 0.324 and the relative viability (BI-D1870 + Foretinib; first compound 0.04 µM) was 1.1. For the same cell line, the relative viability (BI-D1870 + Foretinib; first compound 0.1265 µM) was 0.986, the relative viability (BI-D1870 + Foretinib; first compound 0.4 µM) was 1.11 and the relative viability (BI-D1870 + Foretinib; first compound 1.265 µM) was 0.897. It also gave a relative viability (BI-D1870 + Foretinib; first compound 4 µM) of 0.198, a relative viability (Zebularine + Olaparib; first compound 1 µM) of 0.407 and a relative viability (Zebularine + Olaparib; first compound 3.162 µM) of 0.377. The relative viability (Zebularine + Olaparib; first compound 10 µM) was 0.346, the relative viability (Zebularine + Olaparib; first compound 31.62 µM) was 0.362 and the relative viability (Zebularine + Olaparib; first compound 100 µM) was 0.293. It also gave a relative viability (BI-D1870 + Lapatinib; first compound 0.04 µM) of 1.12, a relative viability (BI-D1870 + Lapatinib; first compound 0.1265 µM) of 0.858 and a relative viability (BI-D1870 + Lapatinib; first compound 0.4 µM) of 0.97. For the same cell line, the relative viability (BI-D1870 + Lapatinib; first compound 1.265 µM) was 1.08 and the relative viability (BI-D1870 + Lapatinib; first compound 4 µM) was 0.637.
